Target: T1, VDR (Homo sapiens, UniProt P11473)
T1 construct: expressed in transfected cells; host or cells: CV-1 (African green monkey kidney cells), transient transfection
T1 sequence (P11473 92-425): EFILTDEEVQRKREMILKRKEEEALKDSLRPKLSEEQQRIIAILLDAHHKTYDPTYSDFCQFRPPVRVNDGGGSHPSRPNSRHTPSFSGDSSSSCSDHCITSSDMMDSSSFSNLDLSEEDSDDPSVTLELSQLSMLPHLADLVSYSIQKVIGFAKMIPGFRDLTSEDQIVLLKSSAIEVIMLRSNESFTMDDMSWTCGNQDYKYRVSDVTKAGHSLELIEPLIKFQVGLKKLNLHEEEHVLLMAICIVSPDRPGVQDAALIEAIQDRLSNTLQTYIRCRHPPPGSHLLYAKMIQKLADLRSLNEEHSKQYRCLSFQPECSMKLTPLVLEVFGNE
T1 sequence (Q15788 381-891 partner limits assumed): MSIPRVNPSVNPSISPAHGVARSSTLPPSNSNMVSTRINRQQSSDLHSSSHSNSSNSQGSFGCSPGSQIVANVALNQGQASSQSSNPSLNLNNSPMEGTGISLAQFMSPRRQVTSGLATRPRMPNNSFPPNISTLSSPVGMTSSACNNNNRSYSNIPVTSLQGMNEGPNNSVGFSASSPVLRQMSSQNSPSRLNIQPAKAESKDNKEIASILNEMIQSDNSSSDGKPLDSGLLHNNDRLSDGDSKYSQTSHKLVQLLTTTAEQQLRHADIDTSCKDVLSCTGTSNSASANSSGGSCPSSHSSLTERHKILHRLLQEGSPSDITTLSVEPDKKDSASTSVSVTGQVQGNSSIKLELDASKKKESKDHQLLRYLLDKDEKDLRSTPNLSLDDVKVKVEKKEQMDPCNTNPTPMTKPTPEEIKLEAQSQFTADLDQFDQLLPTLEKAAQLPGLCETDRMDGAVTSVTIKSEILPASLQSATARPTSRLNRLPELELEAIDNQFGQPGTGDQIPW
Experiment: modified mammalian two-hybrid assay (VDR / SRC-1 interaction, luciferase reporter)
Format: cell-based
Conditions: CV-1 cells, exemplary compounds, read-out: agonist activity EC50
Description: Compound activity was determined using a modified mammalian two-hybrid assay, using the interaction of VDR to the co-factor SRC-1 to monitor receptor activation.
Following incubation with transfection reagents for 5 hours at 37° C., transfected cells were trypsinized, centrifuged, resuspended in media and added to the assay plates, (45 μl, 5000 cells per well). The assay plates containing both compounds and screening cells were incubated for approximately 20 hours at 37° C. in a tissue culture incubator.
After incubation of the transfected cells with compounds, media was aspirated and lysis buffer (1% Triton X 100, 10% Glycerol, 5 mM Dithiothreitol,1 mM EGTA, 25 mM Tricine pH 7.8) added.

| Compound | EC50 [µM] |
| --- | --- |
| CCC(O)(CC)CCc1ccc(C(CC)(CC)c2ccc(OC[C@@H](O)CO)c(C)c2)cc1C [3-(4-{1-ethyl-1-[4-(3-ethyl-3-hydroxypentyl)-3-methylphenyl]-propyl}-2-methyl-phenoxy)-propane-1,2(S)-diol] | < 10 |
| CCC(CC)(c1ccc(CCC(C)(C)O)c(C)c1)c1ccc(OC[C@@H](O)CO)c(C)c1 [3-(4-{1-ethyl-1-[4-(3-hydroxy-3-methylbutyl)-3-methylphenyl]-propyl}-2-methylphenoxy)-propane 1,2(S)-diol] | < 10 |
| Cc1cc(C(c2ccccc2)(c2ccc(OCC(O)C(C)(C)C)c(C)c2)C(F)(F)C(F)(F)F)ccc1OCC(O)CO (stereo not drawn) [3-(2-Methyl-4-{2,2,3,3,3-pentafluoro-1-[4-(2-hydroxy-3,3-dimethyl-butoxy)-3-methyl-phenyl]-1-phenyl-propyl}-phenoxy)-propane-1,2-diol] | < 10 |
| CCC(CC)(c1ccc(CCC(O)C(C)(C)C)cc1)c1ccc(OC[C@@H](O)CO)c(C)c1 (stereo partly drawn) [3-(4-{1-Ethyl-1-[4-(3-hydroxy-4,4-dimethylpentyl)-phenyl]-propyl}-2-methylphenoxy)-propane-1,2(S)-diol] | < 10 |
| CC(=O)N1CCC(c2ccc(OCC(=O)C(C)(C)C)c(C)c2)(c2ccc(OCC(=O)C(C)(C)C)c(C)c2)CC1 [1-(4-{1-Acetyl-4-[4-(3,3-dimethyl-2-oxo-butoxy)-3-methyl-phenyl]-piperidin-4-yl}-2-methyl-phenoxy)-3,3-dimethyl-butan-2-one] | < 10 |
| CCC(CC)(c1ccc(/C=C\C(O)C(C)(C)C)c(C)c1)c1ccc(OC[C@@H](O)CO)c(C)c1 (stereo partly drawn) [(Z)-3-(4-{1-ethyl-1-[4-(3-hydroxy-4,4-dimethylpent-1-enyl)-3-methylphenyl]-propyl}-2-methylphenoxy)-propane-1,2(S)-diol] | < 10 |
| Cc1cc(C(c2ccccc2)(c2ccc(OCC(O)C(C)(C)C)c(C)c2)C(F)(F)F)ccc1OCC(O)CO (stereo not drawn) [3-(2-Methyl-4-{2,2,2-trifluoro-1-[4-(2-hydroxy-3,3-dimethyl-butoxy)-3-methyl-phenyl]-1-phenyl-ethyl}-phenoxy)-propane-1,2-diol] | < 10 |

Test system: 24-hydroxylase
Experiment: kidney 24-hydroxylase gene expression in athymic nude mice (RT-PCR)
Format: in vivo
Conditions: four doses, oral gavage every other day for 14 days; FIG. 2
Description: A (three day) effective dose study was conducted on normal BALB/c mice in order to select a compound for the athymic nude mice study described below. Two-week old male Balb/c mice (Harlan) were weighed and sorted into groups of six according to Day-1 weight. Animals were given a standard diet and housed under normal lighting conditions. Compounds were administered in sesame oil vehicle with 4% ethanol. Ethanol was removed by evaporation by sparging with nitrogen prior to dosing orally by gavage via a 1 cc syringe with a 20 G disposable feeding needle (0.1 mL dose volume). Dosing was daily for three days, with animal weights measured on Days 0, 1 and 3. […] Animal weights were monitored on Day 3, 7, 10 and 14. […] The RT reactions were performed in a DNA Engine thermal cycler (PTC-200, MJ Research) (50° C. 30 minutes; 72° C. 5 minutes) Real-Time Quantitative PCR was performed in a 384 well assay plate using the Prism 7900HT (ABI) using the entire product from the reverse transcription reaction above (5 uL). […] Results were analyzed using the data analysis and software packet (SDS) provided with the instrumentation. FIG. 1 compares the effect of 1α,25-dihydroxyvitamin D3, against four different doses of one selected compound of the current invention, Compound B on plasma calcium levels in athymic nude mice at Day 14 measured 3 hours after final dose. […]

| Compound | RNA expression of kidney 24-hydroxylase (relative to cyclophilin) |
| --- | --- |
| CCC(CC)(c1ccc(C#CC(O)C(C)(C)C)c(C)c1)c1ccc(OC[C@@H](O)CO)c(C)c1 (single isomer, unassigned) [compound B] | dose responsive increase |

Test system: not listed separately
Experiment: plasma calcium determination in athymic nude mice
Format: in vivo
Conditions: four doses, oral gavage every other day for 14 days, Day 14; FIG. 1
Description: A (three day) effective dose study was conducted on normal BALB/c mice in order to select a compound for the athymic nude mice study described below. Two-week old male Balb/c mice (Harlan) were weighed and sorted into groups of six according to Day-1 weight. Animals were given a standard diet and housed under normal lighting conditions. Compounds were administered in sesame oil vehicle with 4% ethanol. Ethanol was removed by evaporation by sparging with nitrogen prior to dosing orally by gavage via a 1 cc syringe with a 20 G disposable feeding needle (0.1 mL dose volume). Dosing was daily for three days, with animal weights measured on Days 0, 1 and 3. […] Animal weights were monitored on Day 3, 7, 10 and 14. […]
Calcium determination was carried out in a micronized plate format with heparinized plasma samples utilizing a colorimetric assay (Sigma 588-3). […] When present in an acidic medium, the calcium Arsenazo complex forms a purple color that was determined using a standard plate reader at […] against a standard curve.
FIG. 1 compares the effect of 1α,25-dihydroxyvitamin D3, against four different doses of one selected compound of the current invention, Compound B on plasma calcium levels in athymic nude mice at Day 14 measured 3 hours after final dose. Dosage is measured in μg/kg and plasma calcium levels are in mg/dl. […]

| Compound | plasma calcium concentration |
| --- | --- |
| CCC(CC)(c1ccc(C#CC(O)C(C)(C)C)c(C)c1)c1ccc(OC[C@@H](O)CO)c(C)c1 (single isomer, unassigned) [compound B] | without elevating plasma calcium concentration |

Reference: patent US7863298B2, “Bridged ring structures as pharmaceutical agents” (Exelixis, Inc., priority 2003, dated 2011)
